Measurements from ChEMBL document CHEMBL1124699, “3-Hydroxy-3-methylglutaryl-coenzyme A reductase inhibitors. 6. Trans-6-[2-(substituted-1-naphthyl)ethyl(or ethenyl)]-3,4,5,6-tetrahydro-4-hydroxy-2H-pyran-2-ones” (J Med Chem, 1990).

Tests used:
[1] = target: T1, 3-hydroxy-3-methylglutaryl-coenzyme A reductase (Rattus norvegicus, UniProt P51639); assay: Inhibitory activity against HMG-CoA reductase
T1 sequence (P51639 whole entry): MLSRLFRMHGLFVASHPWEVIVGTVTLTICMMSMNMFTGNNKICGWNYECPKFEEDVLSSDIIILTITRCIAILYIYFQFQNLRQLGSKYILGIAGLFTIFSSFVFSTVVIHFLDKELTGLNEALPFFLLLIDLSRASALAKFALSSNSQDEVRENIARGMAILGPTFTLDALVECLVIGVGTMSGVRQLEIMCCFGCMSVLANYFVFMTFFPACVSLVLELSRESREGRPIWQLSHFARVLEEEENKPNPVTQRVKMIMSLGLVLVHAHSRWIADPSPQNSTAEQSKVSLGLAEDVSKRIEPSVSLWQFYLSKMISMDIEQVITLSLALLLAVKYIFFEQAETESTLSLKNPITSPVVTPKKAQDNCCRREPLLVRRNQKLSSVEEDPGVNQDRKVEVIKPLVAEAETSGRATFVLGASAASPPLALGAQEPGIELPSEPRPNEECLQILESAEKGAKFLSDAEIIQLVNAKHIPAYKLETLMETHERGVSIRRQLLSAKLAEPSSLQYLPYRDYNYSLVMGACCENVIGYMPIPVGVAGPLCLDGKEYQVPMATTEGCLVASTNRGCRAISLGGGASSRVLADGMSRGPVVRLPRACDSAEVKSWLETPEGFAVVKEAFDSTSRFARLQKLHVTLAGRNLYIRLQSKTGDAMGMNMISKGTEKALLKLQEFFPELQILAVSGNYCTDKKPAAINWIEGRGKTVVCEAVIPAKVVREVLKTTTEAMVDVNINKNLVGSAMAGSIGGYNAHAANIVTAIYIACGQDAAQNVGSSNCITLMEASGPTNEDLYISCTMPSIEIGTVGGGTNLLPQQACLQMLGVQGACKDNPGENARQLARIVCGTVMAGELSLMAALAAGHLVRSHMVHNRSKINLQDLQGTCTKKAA

[2] = target: T2, 3-hydroxy-3-methylglutaryl-coenzyme A reductase (Rattus norvegicus) (UniProt P51639); assay: Potency against HMG-CoA reductase relative to Compactin
T2 sequence (whole entry): T1 sequence (P51639 whole entry)

Row | IC50 [1] | Relative potency [2] | Structure (SMILES)
1 | 7 µM | 0.3 | O=C1C[C@H](O)CC(CCc2ccc(Cl)c3cc(Cl)ccc23)O1 (some centres undefined)
2 | 0.033 µM | 46 | O=C1C[C@H](O)CC(CCc2c(Cl)cc(Cl)c3cc(Cl)ccc23)O1 (some centres undefined)
3 | 4 µM | 0.96 | O=C1C[C@H](O)C[C@@H](/C=C/c2ccc(Br)c3ccccc23)O1
4 | 0.032 µM | 47 | O=C1C[C@H](O)CC(CCc2c(Cl)cc(Cl)c3ccc(Cl)cc23)O1 (some centres undefined)
5 | 0.36 µM | 5 | Cc1ccc2c(C)cc(C)c(CCC3C[C@@H](O)CC(=O)O3)c2c1 (some centres undefined)
6 | 81 µM | 0.043 | O=C1C[C@H](O)CC(CCc2cccc3ccccc23)O1 (some centres undefined)
7 | 0.13 µM | 15 | Cc1cc(Cl)c(CCC2C[C@@H](O)CC(=O)O2)c2cc(Cl)ccc12 (some centres undefined)
8 | 4.12 µM | 0.72 | O=C1C[C@H](O)C[C@@H](/C=C/c2cccc3cccc(Br)c23)O1
9 | 0.06 µM | 30 | Cc1cc(Cl)c2ccc(Cl)cc2c1CCC1C[C@@H](O)CC(=O)O1 (some centres undefined)
10 | 23.3 µM | 0.15 | O=C1C[C@H](O)CC(CCc2ccc(Br)c3ccccc23)O1 (some centres undefined)
11 | 0.2 µM | 7 | Cc1cc(C)c2ccc(Cl)cc2c1CCC1C[C@@H](O)CC(=O)O1 (some centres undefined)
12 | 1.51 µM | 2.3 | O=C1C[C@H](O)C[C@@H](/C=C/c2c(Cl)ccc3ccccc23)O1
